Experimental findings from patent publication US8518460B2, “Use of total coumarins of cnidium fruit in preparing medicaments for treating psoriasis” (priority 2002, dated 2013) are described below.

The assay has as its system swelling of rat toes induced by egg-white. Briefly: Swelling of rat toes induced by egg-white injection. The conditions noted are these: 0.3 g ointment per toe, repeated after 0.5 hour. It counts as in vivo, rats. As for the experimental part: 50 SD rats, 150 g±10 g, were divided randomly into five groups. The volume of the toes at the same side of rats among the 5 groups was measured. 10% of egg white was injected into the toes, 0.2 ml each toe. After that, rats of two groups were anointed respectively with 0.15 g and 0.3 g of an ointment of total coumarins (containing 10% total coumarins) at each toe. Rats of other two groups were respectively anointed with 0.3 g of a blank ointment and 0.3 g of an ointment of anthralin at each toe. The rest one group was treated nothing as a control. 0.5 hour later, the above treatment was repeated. At 1st, 2nd, 4th, and 6th hour the volume of the toes were measured. The difference of the volume was regarded as the degree of the swelling of the toes.

The structures appear in SMILES notation.

For the compound `O=C1c2c(O)cccc2Cc2cccc(O)c21` [Anthralin, anthralin], the “Degree of toe swelling (volume increase)” value (1 h) amounted to 0.408 ± 0.201 mL, the “Degree of toe swelling (volume increase)” value (2 h) stood at 0.391 ± 0.209 mL, the “Degree of toe swelling (volume increase)” value (4 h) turned out to be 0.375 ± 0.189 mL and the “Degree of toe swelling (volume increase)” value (6 h) was 0.351 ± 0.165 mL.
